Reference: ChEMBL document CHEMBL3044691, “The stability and degradation of a new biological pesticide, pyoluteorin” (Pest Manag Sci, 2010)

Legend:
Assay type in all cases: physicochemical
[1] = Half life in phosphate buffer at pH 7.8 at room temperature under sunlight
[2] = Half life in phosphate buffer at pH 7.4 at room temperature under sunlight
[3] = Half life in phosphate buffer at pH 7 at room temperature under sunlight
[4] = Half life in phosphate buffer at pH 6.6 at room temperature under sunlight
[5] = Half life in phosphate buffer at pH 6.2 at room temperature under sunlight
[6] = Half life in phosphate buffer at pH 5.8 at room temperature under sunlight
[7] = Half life under sunlight at room temperature
[8] = Half life under dark condition at room temperature
[9] = Half life under incandescent lamp light at room temperature
[10] = Half life under high-pressure mercury lamp light at room temperature
[11] = Half life under fluorescent lamp light at room temperature
[12] = Half life in phosphate buffer at pH 7.8 under dark condition
[13] = Half life in phosphate buffer at pH 7.4 under dark condition
[14] = Half life in phosphate buffer at pH 7 under dark condition
[15] = Half life in phosphate buffer at pH 6.2 under dark condition
[16] = Half life in phosphate buffer at pH 6.6 under dark condition
[17] = Half life in water solution at 28 degC under dark condition
[18] = Half life in water solution at 121.5 mg/l initial concentration under dark condition
[19] = Half life in water solution at 37 degC under dark condition
[20] = Half life in water solution at 54 degC under dark condition
[21] = Half life in water solution at 70 degC under dark condition
[22] = Half life in phosphate buffer at pH 5.8 under dark condition
[23] = Half life in water solution at 626.5 mg/l initial concentration under dark condition
[24] = Half life in water solution at 502.5 mg/l initial concentration under dark condition
[25] = Half life in water solution at 375 mg/l initial concentration under dark condition
[26] = Half life in water solution at 248.5 mg/l initial concentration under dark condition

`O=C(c1cc(Cl)c(Cl)[nH]1)c1c(O)cccc1O` [PYOLUTEORIN] gave a half-life [1] of 0.42 days, a half-life [2] of 0.58 days and a half-life [3] of 0.69 days. The half-life [4] was 0.92 days, the half-life [5] was 1.29 days and the half-life [6] was 1.77 days. The half-life [7] was 3.5 days, the half-life [8] was 24.9 days and the half-life [9] was 23.5 days. It also gave a half-life [10] of 3.1 days, a half-life [11] of 23.2 days and a half-life [12] of 23.9 days. It also gave a half-life [13] of 32.8 days, a half-life [14] of 54.1 days and a half-life [15] of 42 days. For the same compound, the half-life [16] was 50.2 days, the half-life [17] was 30 days and the half-life at 121.5 mg/l [18] was 26.5 days. It also gave a half-life [19] of 26.5 days, a half-life [20] of 22 days and a half-life [21] of 18.8 days. The half-life [22] was 34.8 days, the half-life at 626.5 mg/l [23] was 51.7 days and the half-life at 502.5 mg/l [24] was 44.4 days. The half-life at 375 mg/l [25] was 37.7 days and the half-life at 248.5 mg/l [26] was 31.1 days.
